We go through twelve molecules from ChEMBL document CHEMBL1201862, “PubChem BioAssay data set” (2004).

Targets include Cytochrome P450 2C9 (Homo sapiens, UniProt P11712); Cytochrome P450 2D6 (Homo sapiens, UniProt P10635); Cytochrome P450 3A4 (Homo sapiens, UniProt P08684).
The target of series [1] is T1, Cytochrome P450 1A2 (Homo sapiens, UniProt P05177).
T1 sequence (P05177 whole entry): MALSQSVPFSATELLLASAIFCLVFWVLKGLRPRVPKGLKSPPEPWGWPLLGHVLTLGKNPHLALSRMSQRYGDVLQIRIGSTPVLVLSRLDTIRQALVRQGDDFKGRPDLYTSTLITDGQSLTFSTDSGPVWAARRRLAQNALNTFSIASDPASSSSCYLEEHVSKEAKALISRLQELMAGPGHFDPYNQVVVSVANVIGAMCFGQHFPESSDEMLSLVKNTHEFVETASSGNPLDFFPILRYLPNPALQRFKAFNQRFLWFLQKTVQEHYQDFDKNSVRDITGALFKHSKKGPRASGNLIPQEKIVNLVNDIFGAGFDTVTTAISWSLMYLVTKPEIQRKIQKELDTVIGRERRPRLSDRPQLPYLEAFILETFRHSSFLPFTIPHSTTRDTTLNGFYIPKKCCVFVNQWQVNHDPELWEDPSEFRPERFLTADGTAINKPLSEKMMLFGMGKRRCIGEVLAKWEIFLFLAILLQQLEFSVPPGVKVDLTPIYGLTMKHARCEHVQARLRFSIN

Another series addresses Cytochrome P450 2C19 (Homo sapiens, UniProt P33261). The series can be described thus: Cytochrome panel assay with activity outcomes. Panel member name: p450-cyp2c19 Compounds with AC50 equal or less than 10 uM are considered active. In kind it is functional.
For the next series, the target named is Keap1/Nrf2 (Homo sapiens, UniProt Q14145). In words: Keap1-Nrf2 protein-protein interaction inhibitors, dose response, biochemical, fluorescence polarization, cherry-picked samples (AID 588683). A general note: Polarisation of emitted light reports the rotation of a fluorescent probe.
Chain of Keap1/Nrf2 (Q16236 whole entry): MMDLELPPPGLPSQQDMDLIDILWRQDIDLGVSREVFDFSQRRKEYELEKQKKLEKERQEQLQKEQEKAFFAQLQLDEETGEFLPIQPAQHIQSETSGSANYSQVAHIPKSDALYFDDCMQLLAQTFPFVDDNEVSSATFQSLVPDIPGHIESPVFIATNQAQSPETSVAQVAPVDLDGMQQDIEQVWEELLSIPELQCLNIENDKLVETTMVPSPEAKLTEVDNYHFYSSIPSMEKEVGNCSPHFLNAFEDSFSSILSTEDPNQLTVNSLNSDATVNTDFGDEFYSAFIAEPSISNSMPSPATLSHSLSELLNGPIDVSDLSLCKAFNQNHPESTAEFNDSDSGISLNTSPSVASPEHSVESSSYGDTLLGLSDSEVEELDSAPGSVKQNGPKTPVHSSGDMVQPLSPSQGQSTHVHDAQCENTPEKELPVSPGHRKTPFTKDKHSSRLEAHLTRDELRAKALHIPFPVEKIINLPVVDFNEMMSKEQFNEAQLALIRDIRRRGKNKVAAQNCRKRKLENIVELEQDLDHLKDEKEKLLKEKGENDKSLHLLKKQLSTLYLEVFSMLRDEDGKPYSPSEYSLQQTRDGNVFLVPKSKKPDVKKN
Chain of Keap1/Nrf2 (Q14145 whole entry): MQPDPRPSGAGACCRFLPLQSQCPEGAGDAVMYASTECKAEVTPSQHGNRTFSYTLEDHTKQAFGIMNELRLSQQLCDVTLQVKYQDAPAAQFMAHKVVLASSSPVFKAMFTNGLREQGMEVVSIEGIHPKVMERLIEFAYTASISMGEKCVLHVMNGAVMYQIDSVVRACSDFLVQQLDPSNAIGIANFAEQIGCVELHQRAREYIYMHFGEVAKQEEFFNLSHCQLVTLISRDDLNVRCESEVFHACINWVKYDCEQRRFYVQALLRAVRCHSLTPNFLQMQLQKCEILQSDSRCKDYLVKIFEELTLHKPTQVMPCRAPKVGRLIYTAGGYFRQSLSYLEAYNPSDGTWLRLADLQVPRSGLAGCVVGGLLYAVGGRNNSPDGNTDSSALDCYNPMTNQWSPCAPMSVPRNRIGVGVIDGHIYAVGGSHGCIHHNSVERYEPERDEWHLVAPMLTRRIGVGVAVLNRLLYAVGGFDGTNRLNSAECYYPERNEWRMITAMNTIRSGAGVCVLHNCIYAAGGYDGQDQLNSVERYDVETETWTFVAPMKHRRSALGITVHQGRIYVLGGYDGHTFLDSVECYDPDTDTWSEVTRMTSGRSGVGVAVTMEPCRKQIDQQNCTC
Series [2] concerns the target Beta-lactamase (Salmonella choleraesuis (strain SC-B67), UniProt Q5J463).
Series [3] concerns the target UDP-galactopyranose mutase (Mycobacterium tuberculosis, UniProt P9WIQ1). The series can be described thus: Inhibitors of Mycobacterium tuberculosis UDP-galactopyranose mutase (UGM) enzyme Measured in Biochemical System Using Plate Reader - 2105-02_Inhibitor_Dose_CherryPick_Activity. [Related pubchem assays (depositor defined):AID504439].
Series [4] addresses T2, RNA-binding protein pos-1 (Caenorhabditis elegans, UniProt G5EF15).
T2 sequence (G5EF15 whole entry): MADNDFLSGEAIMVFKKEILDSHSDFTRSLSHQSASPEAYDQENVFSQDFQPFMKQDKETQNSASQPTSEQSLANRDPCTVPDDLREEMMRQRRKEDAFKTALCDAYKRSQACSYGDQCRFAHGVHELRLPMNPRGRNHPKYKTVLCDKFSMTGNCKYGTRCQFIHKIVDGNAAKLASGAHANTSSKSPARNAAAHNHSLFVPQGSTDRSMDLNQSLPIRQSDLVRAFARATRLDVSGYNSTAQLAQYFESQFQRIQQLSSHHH
In words: inhibitors of POS-1/mex-3 RNA binding, dose response, biochemical, fluorescence polarization (AID 1964).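 Further: purified POS-1 fused to maltose binding protein made in E. coli; potency of compounds blocking POS-1 binding to fluorescent RNA.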

Series [5] has as its target T3, Zinc finger protein mex-5 (Caenorhabditis elegans, UniProt Q9XUB2).
T3 sequence (Q9XUB2 whole entry): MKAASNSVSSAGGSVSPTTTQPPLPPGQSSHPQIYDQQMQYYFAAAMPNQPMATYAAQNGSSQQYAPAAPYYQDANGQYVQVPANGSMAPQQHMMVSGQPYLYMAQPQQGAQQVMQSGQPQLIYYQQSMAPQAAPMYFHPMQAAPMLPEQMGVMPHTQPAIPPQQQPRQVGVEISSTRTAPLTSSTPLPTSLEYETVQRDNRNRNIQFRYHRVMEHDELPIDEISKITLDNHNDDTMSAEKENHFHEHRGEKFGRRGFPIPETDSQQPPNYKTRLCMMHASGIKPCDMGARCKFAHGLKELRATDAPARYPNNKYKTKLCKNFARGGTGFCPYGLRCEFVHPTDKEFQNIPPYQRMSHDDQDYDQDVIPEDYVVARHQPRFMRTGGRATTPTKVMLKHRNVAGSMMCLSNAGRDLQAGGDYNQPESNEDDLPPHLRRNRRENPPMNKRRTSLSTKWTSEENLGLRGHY
In words: MEX-5/TCR-2 RNA interaction inhibitors, dose response, biochemical, C. elegans, fluorescence polarization (AID 1960).

Series [6] addresses Beta-lactamase (Pseudomonas aeruginosa, UniProt Q79MP6).
The test system of series [7] is HeLa. The series can be described thus: HeLa cell cytotoxicity, dose response, cytotoxicity control for MITF activator project, CellTiter-Glo luminescence, cherry-pick samples (AID 540259). Particulars: Homo sapiens. In kind it is functional, cell-based.
In series [8] the target is Luciferin 4-monooxygenase (Photinus pyralis, UniProt P08659). The series can be described thus: firefly luciferase enzyme inhibitors, dose response, biochemical, luminescence (AID 1891).
A short description of series [9]: Luminescence Cell-Based Dose Confirmation HTS to Identify Inhibitors of Platelet Dense Granule Release. [Related pubchem assays: 1663 (Primary HTS), 1678 (Summary of Project)]. Type of series: functional.
Series [10] has as its target T1, Cytochrome P450 1A2. The source holds these as a separate data set.
For series [11], the system named is HEK293. The series can be described thus: cells. In kind it is functional, cell-based. Particulars: Homo sapiens.
Series [12] concerns the target T4, Nuclear receptor subfamily 0 group B member 1 (Homo sapiens, UniProt P51843).
T4 sequence (P51843 whole entry): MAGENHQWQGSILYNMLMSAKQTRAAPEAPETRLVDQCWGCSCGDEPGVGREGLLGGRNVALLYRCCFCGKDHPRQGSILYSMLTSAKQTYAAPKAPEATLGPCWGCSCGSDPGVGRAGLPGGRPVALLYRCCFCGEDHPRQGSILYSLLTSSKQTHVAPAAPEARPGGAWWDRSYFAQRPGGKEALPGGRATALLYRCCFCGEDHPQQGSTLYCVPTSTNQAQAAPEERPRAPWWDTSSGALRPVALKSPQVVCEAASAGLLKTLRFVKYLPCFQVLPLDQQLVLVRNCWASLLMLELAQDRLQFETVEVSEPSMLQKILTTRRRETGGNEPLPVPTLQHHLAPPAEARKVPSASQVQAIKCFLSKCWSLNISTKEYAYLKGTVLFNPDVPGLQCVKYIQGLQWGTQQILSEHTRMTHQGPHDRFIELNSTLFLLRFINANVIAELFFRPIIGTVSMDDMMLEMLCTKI
In words: Luminescence-based cell-based high throughput dose response assay for inhibitors of the orphan nuclear receptor subfamily 0, group B, member 1 (DAX1; NR0B1). [Related pubchem assays (depositor defined):AID504766, AID504790]. In kind it is functional.

In another series the target is ORF 73 (Human herpesvirus 8, UniProt O40947). The series can be described thus: inhibitors of C-LANA binding to LBS DNA, dose response, biochemical, fluorescence polarization, cherry-picked samples (AID 504725).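 Further: fluorescence polarization of a labeled DNA duplex reporting LANA DNA binding; potency is for inhibitors that block LANA binding to the DNA.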 Also noted: species or system Human gammaherpesvirus 8.
In series [13] the test system is HeLa. In words: HeLa cell cytotoxicity, dose response, cytotoxicity control, 24 h, cherry-picked samples (AID 504726).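 Further: potency for cytotoxicity as loss of luminescence signal.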 In kind it is functional, cell-based. Particulars: Homo sapiens.
The target of the next series is CAAX prenyl protease 1 (Saccharomyces cerevisiae S288c, UniProt P47154). The series can be described thus: Ste24 protease inhibitors, dose response, biochemical, S. cerevisiae, plate reader, cherry-pick (AID 488815).
For series [14], the target named is CAAX prenyl protease 2 (Homo sapiens, UniProt Q9Y256). In words: human Rce1 protease inhibitors, dose response, biochemical, yeast membranes, quenched-peptide fluorescence, cherry-pick (AID 588849).
Chain of CAAX prenyl protease 2 (Homo sapiens, UniProt Q9Y256) (Q9Y256 whole entry): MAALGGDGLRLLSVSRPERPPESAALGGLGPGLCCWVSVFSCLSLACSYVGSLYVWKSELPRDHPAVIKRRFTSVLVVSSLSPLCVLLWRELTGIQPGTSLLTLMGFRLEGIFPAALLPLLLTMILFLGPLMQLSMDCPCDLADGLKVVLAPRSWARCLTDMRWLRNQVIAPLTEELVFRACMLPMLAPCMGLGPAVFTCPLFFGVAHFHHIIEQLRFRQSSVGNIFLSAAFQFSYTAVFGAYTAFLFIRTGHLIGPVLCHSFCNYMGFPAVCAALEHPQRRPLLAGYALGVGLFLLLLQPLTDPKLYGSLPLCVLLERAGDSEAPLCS
Series [15] deals with HEK293. In words: cells. In kind it is functional, cell-based. The following applies: Homo sapiens. This is another data set of the same source.
The test system of series [16] is HEK293. The series can be described thus: NOD1 signaling inhibitors, primary screen, cell-based, luminescence, uHTS (AID 1578). Type of series: functional. The following applies: Homo sapiens.
Series [17] is described as follows: Luminescence Cell-Based Dose Response HTS to Identify Inhibitors of 5'UTR Stem-Loop Driven Prion Protein mRNA Translation in H4 Neuroglioblastoma Cells. [Related pubchem assays: 1827 (Project Summary), 1813 (Primary HTS)]. In kind it is functional.
Series [18] can be described thus: inhibitors of SNCA 5'UTR-driven reporter translation, confirmation, H4 neuroglioma cells, luminescence (AID 1988). Type of series: functional, cell-based.
The subject of series [19] is HEK293. In words: NOD2 signaling inhibitors in MDP-stimulated cells, cell-based, uHTS, luminescence (AID 2001). Type of series: functional. Particulars: Homo sapiens.
The test system of series [20] is HEK293. The series can be described thus: cells. In kind it is functional, cell-based. The following applies: Homo sapiens. This is another data set of the same source.
The target of series [21] is Nucleotide-binding oligomerization domain-containing protein 2 (Homo sapiens, UniProt Q9HC29). The series can be described thus: NOD2 signaling inhibitors, cell-based, luminescence, uHTS, HEK293 (AID 1566). In kind it is functional.
Chain of Nucleotide-binding oligomerization domain-containing protein 2 (Q9HC29 whole entry, the tested form may be a part): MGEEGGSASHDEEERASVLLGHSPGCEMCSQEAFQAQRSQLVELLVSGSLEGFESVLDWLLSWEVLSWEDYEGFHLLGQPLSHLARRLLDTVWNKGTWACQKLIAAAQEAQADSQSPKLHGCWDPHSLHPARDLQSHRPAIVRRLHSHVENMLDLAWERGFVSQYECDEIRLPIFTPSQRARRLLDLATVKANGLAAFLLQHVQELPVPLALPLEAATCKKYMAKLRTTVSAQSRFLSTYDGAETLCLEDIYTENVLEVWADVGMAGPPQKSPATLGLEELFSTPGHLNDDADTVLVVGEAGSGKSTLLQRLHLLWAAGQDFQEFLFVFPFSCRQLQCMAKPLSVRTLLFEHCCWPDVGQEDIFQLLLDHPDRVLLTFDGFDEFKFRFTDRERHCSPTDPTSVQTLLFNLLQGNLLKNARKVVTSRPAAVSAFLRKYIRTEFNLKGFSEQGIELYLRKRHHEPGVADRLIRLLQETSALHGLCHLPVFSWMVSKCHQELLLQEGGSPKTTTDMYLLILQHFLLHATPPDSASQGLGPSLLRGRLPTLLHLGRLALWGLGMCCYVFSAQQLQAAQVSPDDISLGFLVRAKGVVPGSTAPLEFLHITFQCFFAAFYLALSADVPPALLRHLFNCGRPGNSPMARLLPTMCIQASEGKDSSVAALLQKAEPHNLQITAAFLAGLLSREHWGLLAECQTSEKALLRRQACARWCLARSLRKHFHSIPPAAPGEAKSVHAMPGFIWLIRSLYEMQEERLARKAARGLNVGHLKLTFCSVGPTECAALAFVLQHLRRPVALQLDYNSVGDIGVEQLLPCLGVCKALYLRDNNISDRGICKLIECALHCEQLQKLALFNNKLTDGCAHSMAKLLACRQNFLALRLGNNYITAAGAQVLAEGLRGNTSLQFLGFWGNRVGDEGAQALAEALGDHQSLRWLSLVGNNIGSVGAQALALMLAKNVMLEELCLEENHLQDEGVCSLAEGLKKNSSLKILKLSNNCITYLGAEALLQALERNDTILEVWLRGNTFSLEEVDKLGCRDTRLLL
Series [22] in a line: inhibitors of firefly luciferase expression or activity, dose response, H4 neuroglioma cells, luminescence (AID 1990). In kind it is functional, cell-based.
Series [23] concerns HEK293. In words: cells. Type of series: functional, cell-based. Particulars: Homo sapiens. This is another data set of the same source.
Series [24] can be described thus: Luminescence Cell-Based Dose Response HTS to Identify Activators of Luciferase Translation or Activity in H4 […] Cells. [Related pubchem assays: 1829 (Project Summary), 1814 (Primary HTS)]. In kind it is functional.
The next series deals with H4. In words: Luminescence Cell-Based Dose Response HTS to Identify Activators of 5'UTR Stem-Loop Driven Prion Protein mRNA Translation in H4 Neuroglioblastoma Cells. [Related pubchem assays: 1829 (Project Summary), 1814 (Primary HTS)]. Particulars: Homo sapiens. In kind it is functional.
Series [25] has as its target CAAX prenyl protease 2 (Saccharomyces cerevisiae S288c, UniProt Q03530). Type of series: biochemical.
Another series concerns the target Trypsin (Sus scrofa, UniProt P00761). In words: porcine trypsin inhibitors, dose response, selectivity assay for Rce1 protease inhibitor project, biochemical, quenched peptide fluorescence, cherry-pick (AID 488789).

Activity calls are given as the source filed them.

Chain of Cytochrome P450 2C9 (P11712 whole entry): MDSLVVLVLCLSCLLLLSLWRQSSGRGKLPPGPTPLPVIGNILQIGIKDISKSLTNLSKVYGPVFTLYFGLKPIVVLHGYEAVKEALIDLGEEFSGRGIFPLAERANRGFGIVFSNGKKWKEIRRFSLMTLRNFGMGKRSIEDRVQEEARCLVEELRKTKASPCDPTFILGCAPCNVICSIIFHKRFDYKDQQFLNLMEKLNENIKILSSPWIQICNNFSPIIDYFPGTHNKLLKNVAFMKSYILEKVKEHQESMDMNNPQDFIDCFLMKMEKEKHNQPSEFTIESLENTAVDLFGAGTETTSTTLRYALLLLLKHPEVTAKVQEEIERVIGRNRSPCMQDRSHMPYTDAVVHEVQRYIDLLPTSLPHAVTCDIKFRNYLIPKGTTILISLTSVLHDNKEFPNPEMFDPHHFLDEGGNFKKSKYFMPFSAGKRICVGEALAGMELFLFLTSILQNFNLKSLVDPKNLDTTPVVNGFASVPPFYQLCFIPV
Chain of Cytochrome P450 3A4 (P08684 whole entry): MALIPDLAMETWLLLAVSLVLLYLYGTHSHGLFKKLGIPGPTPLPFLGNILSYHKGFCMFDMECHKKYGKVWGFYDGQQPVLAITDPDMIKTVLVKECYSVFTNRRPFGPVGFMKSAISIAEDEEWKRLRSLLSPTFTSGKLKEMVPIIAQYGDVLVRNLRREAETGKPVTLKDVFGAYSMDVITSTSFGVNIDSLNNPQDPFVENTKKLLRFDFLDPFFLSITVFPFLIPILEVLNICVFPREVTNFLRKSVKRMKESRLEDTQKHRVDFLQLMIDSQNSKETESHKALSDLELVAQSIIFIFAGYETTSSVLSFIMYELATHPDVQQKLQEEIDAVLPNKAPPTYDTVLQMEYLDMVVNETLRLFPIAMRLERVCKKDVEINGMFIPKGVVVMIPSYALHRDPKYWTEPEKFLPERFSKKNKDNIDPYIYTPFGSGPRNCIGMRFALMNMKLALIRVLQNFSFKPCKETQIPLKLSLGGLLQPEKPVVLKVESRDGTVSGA
Chain of UDP-galactopyranose mutase (P9WIQ1 whole entry): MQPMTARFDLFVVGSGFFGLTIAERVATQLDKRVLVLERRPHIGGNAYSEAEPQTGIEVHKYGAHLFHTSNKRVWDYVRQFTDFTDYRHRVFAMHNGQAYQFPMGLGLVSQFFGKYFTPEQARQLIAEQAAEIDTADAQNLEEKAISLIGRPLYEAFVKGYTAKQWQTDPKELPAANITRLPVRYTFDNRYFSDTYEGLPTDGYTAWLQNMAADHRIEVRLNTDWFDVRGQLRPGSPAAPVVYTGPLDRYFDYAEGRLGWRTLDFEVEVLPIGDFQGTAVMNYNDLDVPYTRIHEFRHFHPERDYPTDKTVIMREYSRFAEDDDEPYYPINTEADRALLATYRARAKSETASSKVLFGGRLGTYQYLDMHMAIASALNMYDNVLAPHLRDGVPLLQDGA
Chain of Cytochrome P450 2C19 (P33261 whole entry): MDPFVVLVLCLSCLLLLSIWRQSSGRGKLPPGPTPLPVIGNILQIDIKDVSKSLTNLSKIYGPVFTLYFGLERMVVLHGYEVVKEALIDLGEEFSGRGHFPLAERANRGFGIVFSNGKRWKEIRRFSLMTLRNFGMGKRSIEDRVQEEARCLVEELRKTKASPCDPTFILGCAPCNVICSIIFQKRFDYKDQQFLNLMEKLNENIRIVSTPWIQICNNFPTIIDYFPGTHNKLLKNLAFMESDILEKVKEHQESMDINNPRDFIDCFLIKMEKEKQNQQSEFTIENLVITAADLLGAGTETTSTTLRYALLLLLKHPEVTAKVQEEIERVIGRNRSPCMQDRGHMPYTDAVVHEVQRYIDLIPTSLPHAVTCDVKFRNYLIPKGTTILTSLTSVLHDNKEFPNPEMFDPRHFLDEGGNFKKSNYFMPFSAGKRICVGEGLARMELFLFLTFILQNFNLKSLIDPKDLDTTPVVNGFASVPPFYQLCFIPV
Chain of Beta-lactamase (Pseudomonas aeruginosa, UniProt Q79MP6) (Q79MP6 whole entry): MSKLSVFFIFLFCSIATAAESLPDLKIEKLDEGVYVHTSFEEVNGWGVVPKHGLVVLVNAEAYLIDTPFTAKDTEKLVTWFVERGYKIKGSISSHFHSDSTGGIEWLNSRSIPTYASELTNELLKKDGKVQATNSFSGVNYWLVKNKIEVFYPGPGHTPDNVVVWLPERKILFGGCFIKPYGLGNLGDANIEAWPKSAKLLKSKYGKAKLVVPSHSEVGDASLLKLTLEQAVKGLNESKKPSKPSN
Chain of Beta-lactamase (Salmonella choleraesuis (strain SC-B67), UniProt Q5J463) (Q5J463 whole entry): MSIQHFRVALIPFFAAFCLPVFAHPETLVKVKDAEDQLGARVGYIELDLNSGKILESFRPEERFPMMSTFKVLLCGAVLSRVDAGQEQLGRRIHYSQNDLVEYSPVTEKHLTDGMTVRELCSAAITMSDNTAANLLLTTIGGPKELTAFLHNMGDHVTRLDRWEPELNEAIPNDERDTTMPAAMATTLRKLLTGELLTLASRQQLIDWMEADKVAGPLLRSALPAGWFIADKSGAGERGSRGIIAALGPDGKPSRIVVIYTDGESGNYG

For orientation: AC50 means the concentration giving half of the maximal activity seen. Regarding `O=C(c1ccc2c(c1)N(Cc1ccccc1)C(=O)CS2)N1CCOCC1`, the half-maximal activity concentration (AC50) entry is “inconclusive” at Cytochrome P450 1A2 [1], 28.2 µM (inconclusive) on Cytochrome P450 2C19 (read-out: AC50) and 14.1 µM (inconclusive) on Cytochrome P450 2C9.
Broadly, the IC50 is the concentration that gives 50% inhibition. By EC50 is commonly meant the concentration giving half of the maximal effect. As to `CN1C(=O)c2cccc3c(N)ccc(c23)C1=O`, the figures for the half-maximal activity concentration (AC50) (at Keap1/Nrf2; in series [3]) were 0.839 µM (active) and 1.59 µM (active), respectively. In addition, the IC50 at Beta-lactamase [2] is 5.56 µM (active); at Beta-lactamase [6] it was 10.5 µM (inactive). For the same molecule, the EC50 in [4] was 0.363 µM (inconclusive); in series [5] it was 0.116 µM (inconclusive).
Take `COc1ccccc1NC(=O)Nc1ccc(C(=O)N2CCCCC2)cc1`: the AC50 in the series with HeLa [7] was 67 µM (active). Further, the concentration giving a half-maximal response (EC50) in series [8] is 2.01 µM (active); in series [9], 6.67 µM (active).
Turning to `O=C(O)c1cc(/N=N\c2ccc(S(=O)(=O)Nc3ccccn3)cc2)ccc1O`, the half-maximal activity concentration (AC50) result at Cytochrome P450 2D6 is “inactive”; on Cytochrome P450 1A2 [1], “inactive”; on Cytochrome P450 2C19, “inactive”; at Cytochrome P450 2C9, 7.94 µM (inconclusive); on Cytochrome P450 3A4, “inactive”.
For `COc1ccc(-n2c(=O)c(-c3ccccc3)nc3cnc(N4CCN(C)CC4)nc32)cc1`, the half-maximal activity concentration (AC50) is 31.6 µM (inconclusive) at Cytochrome P450 2C9, “inconclusive” at Cytochrome P450 3A4 and 20 µM (inconclusive) on Cytochrome P450 1A2 [10].
For `CC(=O)NNc1ncnc2ccccc12`, the IC50 (with HEK293 [11]; in series [12]) was > 67.5 µM (inactive) each time.
Regarding `CN1C(=O)C(=N)c2c3ccccc3c(O)c3c(Br)ccc1c23`, the concentration at half-maximal activity (AC50) at Keap1/Nrf2 is 0.54 µM (active); in [3], 0.519 µM (active); at ORF 73, 2.73 µM (active); in the series on HeLa [13], 303 µM (active). For the same molecule, the half-maximal effective concentration (EC50) in series [4] is 0.66 µM (inconclusive); in [5], < 0.06 µM (inconclusive).
Regarding `COCc1cc(C)n(CC(=O)NCc2ccccc2)c(=O)c1C#N`, the concentration at half-maximal activity (AC50) is 7.22 µM (active) on CAAX prenyl protease 1 and 25.8 µM (active) on CAAX prenyl protease 2 [14].
Take `CC1(C)Nc2ccccc2C(=O)N1c1ccc(Br)cc1`: the IC50 (in the series with HEK293 [11]; in series [12]) was > 67.5 µM (inactive) throughout.
Turning to `CC(C)COc1ccc(C(=O)Nc2sc3c(c2C(=O)O)CC(C)(C)OC3)cc1`, the IC50 is > 20 µM (inactive) in the series on HEK293 [15], 5.19 µM (active) in the series with HEK293 [19], 12.6 µM (active) in the series on HEK293 [20] and > 20 µM (inactive) in the series with HEK293 [23]. Besides, the EC50 was 2.59 µM (active) with HEK293 [16]; 11.2 µM (active) in [17]; > 120 µM (not active) in series [18]; 0.22 µM (active) in series [21]; 11.3 µM (active) in [22].
Turning to `CCn1c(C(=O)OC)cc2c1ccn2-c1ccc(F)cc1`, in the series with HeLa [7], the half-maximal activity concentration (AC50) is 91.9 µM (active). In addition, the EC50 is 69.7 µM (active) in [24] and > 120 µM (not active) with H4.
Regarding `CS(=O)(=O)Nc1ccc(C2=NN(S(C)(=O)=O)C(c3cccs3)C2)cc1` (configuration not stated), the AC50 is 6.27 µM (active) at CAAX prenyl protease 2 [25], 2.38 µM (active) on CAAX prenyl protease 2 [14] and 4.41 µM (active) at Trypsin.
